In patent publication US20140275224A1, “CYTOSINE DEAMINASE MODULATORS FOR ENHANCEMENT OF DNA TRANSFECTION” (Regents of the University of Minnesota, priority 2010, published 2014):

Assays:
A3A = molecular target: T1, A3A (Homo sapiens, UniProt P31941); test: DNA deaminase assay in A3A-expressing HEK-293T cell extracts; type: biochemical; details: A3A-transfected HEK-293T total cell extracts, compared with recombinant protein, FIG. 5
T1 construct: expressed in transfected cells; host or cells: HEK-293T
Description: Like the recombinant protein assay described above, assays with A3-containing cell extracts are done in 96 and 384 well formats and the read-out is relative fluorescence units.
The deaminase activity in the lysates was determined using a FRET-based assay essentially as described^59. […] FRET occurs between the fluorophores, decreasing FAM fluorescence. If cytidine deaminase activity is present in the lysates, the single cytidine is converted to uridine, which is then excised by uracil DNA glycosylase (NEB). Resulting abasic sites are cleaved by incubating reactions for 2 min at 95° C. Once cleaved, the FAM and TAMRA labels are physically separated, FRET diminishes, and FAM fluorescence increases. Fluorescence is measured on the Lightcycler 480 instrument (Roche).

primary human monocytes = primary human monocytes nucleofected with a GFP expression vector; type: cell-based; details: 3 days post-transfection, flow cytometry, versus DMSO (not detectably transfected), FIG. 7B
From the text: Primary human monocytes were purified by negative selection and nucleofected with a GFP expression vector. Since these cells naturally express A3A, transfection with A3A expression plasmids was not necessary. The pool of transfected cells was split into wells containing media plus vehicle control or MN132. A variety of different cell lines (lymphoid, liver, breast, brain, epithelial, and colorectal origins) and distinct primary white blood cell types (T, B, monocyte, neutrophil, etc.) can be used in these experiments to test the central hypothesis that the endogenous A3s constitute a general barrier to foreign DNA and genetic engineering.

[1] = tested on: A3 DNA deaminase (A3A or A3G); test: fluorescence-based DNA deamination assay, high-throughput screening; type: biochemical, human; details: 10 μM library compound, inhibitors inhibit the reaction by 50% or more and reproduce in dose response
From the text: MN132, MN137, MN141, and MN152 are a few exemplary molecules identified from high-throughput screening. To screen for inhibitors of A3A or A3G DNA cytosine deaminase activity, a previously described fluorescence-based assay has been modified, optimized, and miniaturized (FIG. 2A) (30). C-to-U by A3A or A3G creates a substrate uracil that is excised by UDG, and the resulting abasic site is attacked by hydroxide to release 6-FAM fluorescence from the TAMRA quench. Recombinant A3A- or A3G-myc-His purified from a HEK-293-based cell line is incubated with uracil DNA glycosylase (UDG), 10 μM library compound (or a DMSO control), and a cytosine-containing, single-stranded DNA substrate attached to a 5′ 6-FAM fluorescent tag and a 3′ TAMRA quench molecule. During a 2 hr incubation period, the A3 protein deaminates 5′-C-to-U and UDG excises the uracil to leave an abasic site. DNA cleavage by NaOH produces a fluorescent signal by releasing the 6-FAM fluorophore from the TAMRA quench. This assay is highly sensitive and reproducible (A3G Z score=0.86 and A3A Z score=0.88 on the University of Minnesota ITDD HTS platform). […]
Protocols were developed for purification of A3-myc-His proteins from HEK-293 cells. […] High (80-90%) purity is achieved routinely, and all proteins show robust activity in our fluorescence-based C-to-U deaminase assay as shown in FIGS. 4C and 4D.

[2] = molecular target: E. Coli uracil-DNA glycosylase (Escherichia coli, UniProt P12295); test: control assay with UDG (U-containing oligos, without A3s); type: biochemical; details: specificity control, FIG. 2C
From the text: All newly synthesized compounds can be tested in dose response experiments against recombinant A3A and A3G to identify the sub-library_compounds that have dual-inhibitory activity like the parental molecules.
These initial experiments can also identify the subset with improved IC50 values. Second, all confirmed inhibitors can be tested against the other five recombinant human A3 proteins (A3BCDEFH) to identify broader-spectrum inhibitors. Third, reactions can be performed with U-containing oligos and UDG (i.e., without A3s) to re-confirm that all new inhibitors have not become general enzyme inhibitors. These assays can be carried out in 96 or 384 well plate formats. HEK-293T cells were transfected with an A3A expression plasmid, and total cell extracts were used in DNA deaminase assays. Non-transfected or A3A-E72A catalytic mutant transfected cell extracts show no activity (28).

T1 sequence (P31941 whole entry): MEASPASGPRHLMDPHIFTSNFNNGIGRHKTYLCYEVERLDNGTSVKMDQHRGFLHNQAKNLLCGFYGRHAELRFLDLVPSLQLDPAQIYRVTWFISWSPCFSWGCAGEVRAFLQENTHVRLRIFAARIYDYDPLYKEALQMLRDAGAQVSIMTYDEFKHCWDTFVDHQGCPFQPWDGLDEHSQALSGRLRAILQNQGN
Sequence of E. Coli uracil-DNA glycosylase (P12295 whole entry): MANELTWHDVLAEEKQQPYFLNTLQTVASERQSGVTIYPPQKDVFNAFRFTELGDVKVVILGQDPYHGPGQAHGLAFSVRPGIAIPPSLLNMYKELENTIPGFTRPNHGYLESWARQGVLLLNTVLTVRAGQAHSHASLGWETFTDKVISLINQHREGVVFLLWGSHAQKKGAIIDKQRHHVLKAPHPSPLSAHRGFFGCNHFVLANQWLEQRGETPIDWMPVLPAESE

## Cc1ccc(-c2cc(C(=O)Nc3nnc(-c4ccncc4)s3)c3ccccc3n2)o1 [MN132, 2-(5-methylfuran-2-yl)-N-(5-(pyridin-4-yl)-1,3,4-thiadiazol-2-yl)quinoline-4-carboxamide]
A3A
  IC50 values in cell extracts: higher
Primary human monocytes
  percentage of cells expressing GFP: dose dependent increases
[1]
  inhibition of A3 DNA deaminase activity in vitro: inhibit A3 DNA deaminase activity in vitro

## O=C(O)C1=CC(=C(c2ccc(O)c(C(=O)O)c2)c2ccc(O)c(C(=O)O)c2)C=CC1=O [ATA]
[2]
  block of UDG: lone exception
